From ChEMBL document CHEMBL3046792, “Biologically active secondary metabolites of endophytic Pezicula species” (1995)

Experiments:
Assay type in all cases: functional
Medicago sativa = experiment: Herbicidal activity against Medicago sativa (alfalfa) assessed as inhibition of seedlings growth after 5 days
Escherichia coli [1] = experiment: Antimicrobial activity against Escherichia coli at 1 mg by agar diffusion test; details: read-out: IZ
Lepidium sativum = experiment: Herbicidal activity against Lepidium sativum assessed as inhibition of seedlings growth after 2 days
Mycotypha microspora [2] = experiment: Antimicrobial activity against Mycotypha microspora at 1 mg by agar diffusion test; details: read-out: IZ
Priestia megaterium [3] = experiment: Antimicrobial activity against Bacillus megaterium at 1 mg by agar diffusion test; details: read-out: IZ
[Chlorella] fusca [4] = Antimicrobial activity against 'Chlorella' fusca at 1 mg by agar diffusion test; details: Scenedesmus fuscus; read-out: IZ
Microbotryum violaceum [5] = experiment: Antimicrobial activity against Microbotryum violaceum at 1 mg by agar diffusion test; details: read-out: IZ
[6] = tested on: Aspergillus pseudoglaucus; experiment: Antimicrobial activity against Eurotium repens at 1 mg by agar diffusion test; details: read-out: IZ
[7] = tested on: Aspergillus pseudoglaucus; experiment: Antimicrobial activity against Eurotium repens at 0.9 mg by agar diffusion test; details: read-out: IZ
Mycotypha microspora [8] = experiment: Antimicrobial activity against Mycotypha microspora at 0.9 mg by agar diffusion test; details: read-out: IZ
Escherichia coli [9] = experiment: Antimicrobial activity against Escherichia coli at 0.9 mg by agar diffusion test; details: read-out: IZ
[Chlorella] fusca [10] = Antimicrobial activity against 'Chlorella' fusca at 0.9 mg by agar diffusion test; details: Scenedesmus fuscus; read-out: IZ
Priestia megaterium [11] = experiment: Antimicrobial activity against Bacillus megaterium at 0.9 mg by agar diffusion test; details: read-out: IZ
Microbotryum violaceum [12] = experiment: Antimicrobial activity against Microbotryum violaceum at 0.9 mg by agar diffusion test; details: read-out: IZ
Priestia megaterium [13] = experiment: Antimicrobial activity against Bacillus megaterium at 1.2 mg by agar diffusion test; details: read-out: IZ
Mycotypha microspora [14] = experiment: Antimicrobial activity against Mycotypha microspora at 1.2 mg by agar diffusion test; details: read-out: IZ
Microbotryum violaceum [15] = experiment: Antimicrobial activity against Microbotryum violaceum at 1.2 mg by agar diffusion test; details: read-out: IZ
Escherichia coli [16] = experiment: Antimicrobial activity against Escherichia coli at 1.2 mg by agar diffusion test; details: read-out: IZ
[17] = tested on: Aspergillus pseudoglaucus; experiment: Antimicrobial activity against Eurotium repens at 1.2 mg by agar diffusion test; details: read-out: IZ
[Chlorella] fusca [18] = Antimicrobial activity against 'Chlorella' fusca at 1.2 mg by agar diffusion test; details: Scenedesmus fuscus; read-out: IZ

For `C/C=C/C1=C(Cl)C(=O)[C@@H](Cl)[C@@]1(O)C(=O)OC` [(+)-CRYPTOSPORIPSIN], the “growth inhibition (GI)” value (Medicago sativa) was 100%, the zone of inhibition at 1000 µg/disc (Escherichia coli [1]) was 3 mm and the “growth inhibition (GI)” value (Lepidium sativum) was 100%. The zone of inhibition at 1000 µg/disc (Mycotypha microspora [2]) was 17 mm, the zone of inhibition at 1000 µg/disc (Priestia megaterium [3]) was 5 mm and the zone of inhibition at 1000 µg/disc ([Chlorella] fusca [4]) was 0 mm. For the same molecule, the zone of inhibition at 1000 µg/disc (Microbotryum violaceum [5]) was 15 mm and the zone of inhibition at 1000 µg/disc [6] was 16 mm.
`C[C@@H]1Cc2cccc(O)c2C(=O)O1` [(-)-(R)-MELLEIN] was tested, and the “growth inhibition (GI)” value (Medicago sativa) was 100%, the zone of inhibition at 900 µg/disc [7] was 6 mm and the zone of inhibition at 900 µg/disc (Mycotypha microspora [8]) was 0 mm. The zone of inhibition at 900 µg/disc (Escherichia coli [9]) was 2 mm, the “growth inhibition (GI)” value (Lepidium sativum) was 100% and the zone of inhibition at 900 µg/disc ([Chlorella] fusca [10]) was 14 mm. The zone of inhibition at 900 µg/disc (Priestia megaterium [11]) was 2 mm and the zone of inhibition at 900 µg/disc (Microbotryum violaceum [12]) was 8 mm.
`C=C1C(=O)O[C@H]2C(=O)O[C@H](CC)[C@@H]12` [4-EPI-ETHIOSOLIDE] was tested, and the “growth inhibition (GI)” value (Medicago sativa) was 100%, the zone of inhibition at 1000 µg/disc (Escherichia coli [1]) was 5 mm and the “growth inhibition (GI)” value (Lepidium sativum) was 100%. The zone of inhibition at 1000 µg/disc (Mycotypha microspora [2]) was 6 mm, the zone of inhibition at 1000 µg/disc (Priestia megaterium [3]) was 5 mm and the zone of inhibition at 1000 µg/disc ([Chlorella] fusca [4]) was 3 mm. The zone of inhibition at 1000 µg/disc (Microbotryum violaceum [5]) was 10 mm.
With `C/C=C(\Cl)C1=CC(=O)[C@@]23C[C@@H]2C(C)(C)O[C@@]3(O)C1=O` [(-)-MYCORRHIZIN A] the zone of inhibition at 1200 µg/disc (Priestia megaterium [13]) was 8 mm, the “growth inhibition (GI)” value (Medicago sativa) was 100% and the zone of inhibition at 1200 µg/disc (Mycotypha microspora [14]) was 10 mm. The zone of inhibition at 1200 µg/disc (Microbotryum violaceum [15]) was 14 mm, the “growth inhibition (GI)” value (Lepidium sativum) was 100% and the zone of inhibition at 1200 µg/disc (Escherichia coli [16]) was 3 mm. It also gave a zone of inhibition at 1200 µg/disc [17] of 14 mm and a zone of inhibition at 1200 µg/disc ([Chlorella] fusca [18]) of 3 mm.
